The target in this test is T1, human mAChR M1 (Homo sapiens, UniProt P11229).
T1 sequence (P11229 1-460): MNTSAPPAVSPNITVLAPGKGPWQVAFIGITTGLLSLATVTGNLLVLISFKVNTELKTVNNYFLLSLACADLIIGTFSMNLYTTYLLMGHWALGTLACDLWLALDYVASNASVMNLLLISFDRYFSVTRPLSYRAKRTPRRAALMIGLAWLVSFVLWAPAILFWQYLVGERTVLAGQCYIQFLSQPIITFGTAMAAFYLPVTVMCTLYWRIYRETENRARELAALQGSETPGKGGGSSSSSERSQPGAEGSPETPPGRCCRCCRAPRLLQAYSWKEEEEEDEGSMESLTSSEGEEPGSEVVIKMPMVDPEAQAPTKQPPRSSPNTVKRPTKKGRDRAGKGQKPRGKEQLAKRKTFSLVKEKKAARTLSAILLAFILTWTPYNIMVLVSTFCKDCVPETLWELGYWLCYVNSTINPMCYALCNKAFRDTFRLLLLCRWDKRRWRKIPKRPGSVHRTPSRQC
Description: mAChR M1 cell-based functional assay (calcium mobilization, PAM mode). As to conditions: CHO-K1 cells stably expressing hM1, calcium flux (Fluo-4); for EC50: concentration-dependent increase in the EC20 acetylcholine response; for Emax: potentiation of EC20 acetylcholine response. The source says: Chinese hamster ovary (CHO-K1) cells stably expressing rat (r)M1 were purchased from the American Type Culture Collection and cultured according to their indicated protocol. CHO cells stably expressing human (h)M2, hM3, and hM5 were described previously (Levey, et al., 1991); hM1 and hM4 cDNAs were purchased from Missouri S&T cDNA Resource; rM4 cDNA was provided by T. I. Bonner (National Institutes of Health, Bethesda, MD). rM2 and rM3 were cloned from a rat brain cDNA library and sequence verified. hM1, rM2, rM3, hM4, and rM4 cDNAs were used to stably transfect CHO-K1 cells purchased from the American Type Culture Collection using Lipofectamine2000. To make stable rM2, hM2, rM3, hM4, and rM4 cell lines for use in calcium mobilization assays, these cells also were stably transfected with a chimeric G-protein (Gqi5) (provided by B. R. Conklin, University of California, San Francisco) using Lipofectamine 2000. rM1, hM1, rM3, hM3, rM5, and hM5 cells were grown in Ham's F-12 medium containing 10% heat-inactivated fetal bovine serum (FBS), 20 mM HEPES, and 50 μg/mL G418 sulfate. rM2-Gqi5, hM2-Gqi5, and hM4-Gqi5 cells were grown in the same medium also containing 500 μg/mL Hygromycin B. Stable rM4-Gqi5 cells were grown in DMEM containing 10% heat-inactivated FBS, 20 mM HEPES, 400 μg/mL G418 sulfate, and 500 μg/mL Hygromycin B.
For high throughput measurement of agonist-evoked increases in intracellular calcium, CHO-K1 cells stably expressing muscarinic receptors were plated in growth medium lacking G418 and hygromycin at 15,000 cells/20 μL/well in Greiner 384-well black-walled, tissue culture (TC)-treated, clear-bottom plates (VWR). Cells were incubated overnight at 37° C. and 5% CO2. The next day, cells were washed using an ELX 405 (BioTek) with four washes (80 μL) of assay buffer then aspirated to 20 μL. Next, 20 μL of 16 μM Fluo-4/acetoxymethyl ester (Invitrogen, Carlsbad, CA) prepared as a 2.3 mM stock in DMSO and mixed in a 1:1 ratio with 10% (w/v) Pluronic F-127 and diluted in assay buffer was added to the wells and the cell plates were incubated for 50 min at 37° C. and 5% CO2. Dye was removed by washing with the ELX 405 (four […], washes of assay buffer) then aspirated to 20 μL. Compound master plates were formatted in an 11 point CRC format (1:3 dilutions) in 100% DMSO with a starting concentration of 10 mM using the BRAVO liquid handler (Agilent). Test compound CRCs were then transferred to daughter plates (240 nL) using the Echo acoustic plate reformatter (Labcyte, Sunnyvale, CA) and then diluted into assay buffer (40 μL) to a 2× stock using a Thermo Fisher Combi (Thermo Fisher Scientific, Waltham, MA).
Calcium flux was measured using the Functional Drug Screening System (FDSS) 6000 (Hamamatsu Corporation, Tokyo, Japan) as an increase in the fluorescent static ratio. Compounds were applied to cells (20 μL, 2×) using the automated system of the FDSS 6000 at 4 s into the 300 s protocol and the data were collected at 1 Hz. At 144 s into the 300 s protocol, 10 μL of an EC20 concentration of the muscarinic receptor agonist acetylcholine was added (5×), followed by the addition of 12 μL an EC80 concentration of acetylcholine at the 230 s time point (5×). Agonist activity was analyzed as a concentration-dependent increase in calcium mobilization upon compound addition. Emax values for agonist activity are expressed relative to the maximum for acetylcholine. Positive allosteric modulator activity was analyzed as a concentration-dependent increase in the EC20 acetylcholine response. Antagonist activity was analyzed as a concentration-dependent decrease in the EC80 acetylcholine response. Concentration-response curves were generated using a four-parameter logistical equation in XLfit curve fitting software (IDBS, Bridgewater, NJ) for Excel (Microsoft, Redmond, WA) or Prism (GraphPad Software, Inc., San Diego, CA). […]

From US12065433B2, “Positive allosteric modulators of the muscarinic acetylcholine receptor M1” (Vanderbilt University, priority 2018, dated 2024) come the findings set out here.

Each structure is given as a SMILES string.

On to `O=C(N[C@H]1CCOC[C@@H]1O)c1cc(Cc2ccc(-n3cccn3)cc2)cc2c1OCO2` [Compound 1, N-[(3R,4S)-3-hydroxytetrahydropyran-4-yl]-6-[(4-pyrazol-1-ylphenyl)methyl]-1,3-benzodioxole-4-carboxamide], for which the EC50 came to 920 nM and the Emax turned out to be 81%.

Turning to `O=C(N[C@H]1CCCC[C@@H]1O)c1cc(Cc2ccc(-n3cccn3)cc2)cc2c1OCO2` [Compound 2, N-[(1S,2S)-2-hydroxycyclohexyl]-6-[(4-pyrazol-1-ylphenyl)methyl]-1,3-benzodioxole-4-carboxamide], the EC50 is 790 nM and the maximal response (Emax) is 82%.

Regarding `O=C(NC1CC2(COC2)C1)c1cc(Cc2ccc(-n3cccn3)cc2)cc2c1OCO2` [Compound 3, N-(2-oxaspiro[3.3]heptan-6-yl)-6-[(4-pyrazol-1-ylphenyl)methyl]-1,3-benzodioxole-4-carboxamide], the Emax is 59%.

As for `O=C(N[C@H]1CCC[C@@H]1O)c1cc(Cc2ccc(-n3cccn3)cc2)cc2c1OCO2` [Compound 4, N-[(1S,2S)-2-hydroxycyclopentyl]-6-[(4-pyrazol-1-ylphenyl)methyl]-1,3-benzodioxole-4-carboxamide], the EC50 was found to be 2480 nM and the Emax came out at 69%.

With `O=C(N[C@H]1CC[C@@H]1O)c1cc(Cc2ccc(-n3cccn3)cc2)cc2c1OCO2` [Compound 5, N-[(1S,2S)-2-hydroxycyclobutyl]-6-[(4-pyrazol-1-ylphenyl)methyl]-1,3-benzodioxole-4-carboxamide], the EC50 stood at 3670 nM and the Emax amounted to 55%.

For the compound `O=C(N[C@H]1CCCCC[C@@H]1O)c1cc(Cc2ccc(-n3cccn3)cc2)cc2c1OCO2` [Compound 6, N-[(1S,2S)-2-hydroxycycloheptyl]-6-[(4-pyrazol-1-ylphenyl)methyl]-1,3-benzodioxole-4-carboxamide], the EC50 amounted to 1040 nM and the Emax came to 76%.

`CC(C)(O)CNC(=O)c1cc(Cc2ccc(-n3cccn3)cc2)cc2c1OCO2` [Compound 7, N-(2-hydroxy-2-methyl-propyl)-6-[(4-pyrazol-1-ylphenyl)methyl]-1,3-benzodioxole-4-carboxamide]: the maximum response (Emax) was 61%.

On to `CC1(C)COCCC1NC(=O)c1cc(Cc2ccc(-n3cccn3)cc2)cc2c1OCO2` (stereo not shown) [Compound 8, N-(3,3-dimethyltetrahydropyran-4-yl)-6-[(4-pyrazol-1-ylphenyl)methyl]-1,3-benzodioxole-4-carboxamide], for which the 50% effective concentration (EC50) is 7330 nM and the maximum response (Emax) worked out at 67%.

On to `Cn1ccc(-c2ccc(Cc3cc4c(c(C(=O)N[C@H]5CCOC[C@@H]5O)c3)OCO4)cn2)n1` [Compound 9, N-[(3R,4S)-3-hydroxytetrahydropyran-4-yl]-6-[[6-(1-methylpyrazol-3-yl)-3-pyridyl]methyl]-1,3-benzodioxole-4-carboxamide], for which the 50% effective concentration (EC50) worked out at 1420 nM and the Emax was found to be 75%.

Consider `Cn1ccc(-c2ccc(Cc3cc4c(c(C(=O)N[C@H]5CCCCC[C@@H]5O)c3)OCO4)cn2)n1` [Compound 10, N-[(1S,2S)-2-hydroxycycloheptyl]-6-[[6-(1-methylpyrazol-3-yl)-3-pyridyl]methyl]-1,3-benzodioxole-4-carboxamide], for which the EC50 was determined as 1190 nM and the maximal effect (Emax) amounted to 74%.

On to `Cn1ccc(-c2ccc(Cc3cc4c(c(C(=O)N[C@H]5CCCC[C@@H]5O)c3)OCO4)cn2)n1` [Compound 11, N-[(1S,2S)-2-hydroxycyclohexyl]-6-[[6-(1-methylpyrazol-3-yl)-3-pyridyl]methyl]-1,3-benzodioxole-4-carboxamide], for which the EC50 was 810 nM and the maximal effect (Emax) came out at 76%.

On to `Cn1ccc(-c2ccc(Cc3cc4c(c(C(=O)N[C@H]5CCC[C@@H]5O)c3)OCO4)cn2)n1` [Compound 12, N-[(1S,2S)-2-hydroxycyclopentyl]-6-[[6-(1-methylpyrazol-3-yl)-3-pyridyl]methyl]-1,3-benzodioxole-4-carboxamide], for which the 50% effective concentration (EC50) was 6440 nM and the Emax came to 74%.
